Experimental data: US20230113037A1 (Bayer Aktiengesellschaft, priority 2019, published 2023)
Like-named read-outs stand apart in the source and are kept apart here.

What was measured:
AHR [1] = biological target: T1, AHR (Homo sapiens, UniProt P35869); assay: In vitro assay 1: antagonism in human cell line (AHR transactivation, firefly luciferase reporter, kynurenic acid prestimulated); format: cell-based; settings: AHR Antagonism Human IC50 [M], firefly luciferase reporter
T1 construct: U87 MG glioblastoma cells (ATCC #HTB-14) endogenously expressing AHR; endogenous in cells; host or cells: U87 MG glioblastoma cells (ATCC #HTB-14)
T1 sequence (P35869 11-848): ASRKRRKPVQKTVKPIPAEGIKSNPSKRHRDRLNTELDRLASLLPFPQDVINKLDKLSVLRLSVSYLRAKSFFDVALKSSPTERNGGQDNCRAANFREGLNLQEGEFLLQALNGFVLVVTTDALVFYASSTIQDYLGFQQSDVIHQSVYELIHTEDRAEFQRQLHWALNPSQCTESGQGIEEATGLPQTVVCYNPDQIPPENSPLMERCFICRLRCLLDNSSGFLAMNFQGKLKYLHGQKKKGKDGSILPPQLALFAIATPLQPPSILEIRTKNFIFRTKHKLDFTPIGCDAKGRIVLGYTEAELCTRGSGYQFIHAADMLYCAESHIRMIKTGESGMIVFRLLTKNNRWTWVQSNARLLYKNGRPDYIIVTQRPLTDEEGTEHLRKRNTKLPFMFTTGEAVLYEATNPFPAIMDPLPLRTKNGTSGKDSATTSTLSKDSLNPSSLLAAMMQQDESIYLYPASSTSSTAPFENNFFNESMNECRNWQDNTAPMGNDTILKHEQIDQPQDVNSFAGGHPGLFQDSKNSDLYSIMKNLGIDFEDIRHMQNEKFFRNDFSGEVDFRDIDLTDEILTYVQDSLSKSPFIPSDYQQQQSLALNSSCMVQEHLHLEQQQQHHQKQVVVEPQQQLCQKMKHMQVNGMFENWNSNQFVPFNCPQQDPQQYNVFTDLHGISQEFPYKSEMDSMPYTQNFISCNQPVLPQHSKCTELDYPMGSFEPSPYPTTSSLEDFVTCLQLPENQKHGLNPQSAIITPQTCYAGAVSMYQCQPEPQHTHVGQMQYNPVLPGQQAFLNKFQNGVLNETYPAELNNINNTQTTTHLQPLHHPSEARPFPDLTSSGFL
How it was run: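 Antagonism measured as loss of kynurenic acid-driven firefly luciferase from DRE reporter in stably transfected U87 MG cells; constitutive Renilla signal monitors cytotoxicity. Positive/negative control normalization, staurosporine 5 μM with 150 μM kynurenic acid as inhibition control; replicates given as mean or median.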

AHR [2] = biological target: T2, AHR (Mus musculus, UniProt P30561); assay: In vitro assay 3: antagonism in mouse cell line (AHR transactivation, firefly luciferase reporter, kynurenic acid prestimulated); format: cell-based
T2 sequence (P30561 1-848 P471L/N533S/M589L): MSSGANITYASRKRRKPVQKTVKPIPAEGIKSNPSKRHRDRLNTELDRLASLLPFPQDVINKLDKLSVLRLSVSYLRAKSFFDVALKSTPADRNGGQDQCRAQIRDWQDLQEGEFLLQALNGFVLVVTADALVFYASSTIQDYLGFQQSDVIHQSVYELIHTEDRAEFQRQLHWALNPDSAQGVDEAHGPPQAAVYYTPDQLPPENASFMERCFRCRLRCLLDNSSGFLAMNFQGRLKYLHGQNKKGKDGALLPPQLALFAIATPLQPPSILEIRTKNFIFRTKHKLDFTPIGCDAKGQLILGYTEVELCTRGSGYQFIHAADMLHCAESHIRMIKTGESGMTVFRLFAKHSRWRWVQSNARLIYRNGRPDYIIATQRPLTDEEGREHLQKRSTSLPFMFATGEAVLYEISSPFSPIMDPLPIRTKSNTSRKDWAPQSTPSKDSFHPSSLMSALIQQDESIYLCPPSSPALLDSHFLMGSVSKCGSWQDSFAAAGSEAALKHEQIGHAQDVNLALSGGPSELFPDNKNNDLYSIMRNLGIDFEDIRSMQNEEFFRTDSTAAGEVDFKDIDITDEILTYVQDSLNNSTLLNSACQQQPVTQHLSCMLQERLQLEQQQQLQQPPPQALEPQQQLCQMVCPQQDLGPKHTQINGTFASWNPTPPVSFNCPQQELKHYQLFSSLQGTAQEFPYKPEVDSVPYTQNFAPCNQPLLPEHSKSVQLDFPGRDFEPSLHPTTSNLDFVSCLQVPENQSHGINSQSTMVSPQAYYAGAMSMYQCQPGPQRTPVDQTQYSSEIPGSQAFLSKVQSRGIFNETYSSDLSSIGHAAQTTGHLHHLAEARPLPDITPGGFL
How it was run: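 Luminescence from an AHR-dependent DRE-luciferase reporter, stably integrated in mouse cells, quantifies blockade of kynurenic acid-driven activation. Unstimulated cells mark maximal inhibition; normalization uses both control types, and multiply tested compounds carry mean or median values.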

[3] = Hepa 1c1c7 cells, 200 μM kynurenic acid, 20 hours, firefly luciferase reporter, read-out: AHR Antagonism Mouse IC50
[4] = read-out: AHR Antagonism Mouse IC50, Hepa 1c1c7 cells, 200 μM kynurenic acid, 20 hours, firefly luciferase reporter

IC50 (AHR [1]) [M]	IC50 (AHR [2]; [3]) [nM]	SMILES	IC50 (AHR [2]; [4]) [nM]
1.3e-07	297	CC(C)n1cc(-c2nc3c4cccc(C#N)c4nc(N[C@@H]4CNCCNC4=O)n3n2)cn1 [Example 931, 5-{[(6R)-5-oxo-1,4-diazepan-6-yl]amino}-2-[1-(propan-2-yl)-1H-pyrazol-4-yl][1,2,4]triazolo[1,5-c]quinazoline-7-carbonitrile]	–
1.48e-07	173	N#Cc1cccc2c1nc(N[C@@H]1CNCCNC1=O)n1nc(-c3cnn(C4CC4)c3)nc21 [Example 932, 2-(1-cyclopropyl-1H-pyrazol-4-yl)-5-{[(6R)-5-oxo-1,4-diazepan-6-yl]amino}[1,2,4]triazolo[1,5-c]quinazoline-7-carbonitrile]	–
7.39e-08	138	N#Cc1cccc2c1nc(N[C@@H]1CNCCNC1=O)n1nc(-c3cnn(C4CCC4)c3)nc21 [Example 933, 2-(1-cyclobutyl-1H-pyrazol-4-yl)-5-{[(6R)-5-oxo-1,4-diazepan-6-yl]amino}[1,2,4]triazolo[1,5-c]quinazoline-7-carbonitrile]	–
4.72e-06	1120	N#Cc1cccc2c1nc(N[C@@H]1CNCCNC1=O)n1nc(-c3cn[nH]c3)nc21 [Example 935, 5-{[(6R)-5-oxo-1,4-diazepan-6-yl]amino}-2-(1H-pyrazol-4-yl)[1,2,4]triazolo[1,5-c]quinazoline-7-carbonitrile]	–
1.27e-08	66.9	COc1ccc(-c2nc3c4cccc(S(C)(=O)=O)c4nc(N[C@@H]4CNCCNC4=O)n3n2)cc1 [Example 936, (6R)-6-{[7-(methanesulfonyl)-2-(4-methoxyphenyl)[1,2,4]triazolo[1,5-c]quinazolin-5-yl]amino}-1,4-diazepan-5-one]	–
> 2e-05	> 20000	Cn1cc(-c2nc3c4cccc(S(C)(=O)=O)c4nc(N[C@@H]4CNCCNC4=O)n3n2)cn1 [Example 937, (6R)-6-{[7-(methanesulfonyl)-2-(1-methyl-1H-pyrazol-4-yl)[1,2,4]triazolo[1,5-c]quinazolin-5-yl]amino}-1,4-diazepan-5-one]	–
4.23e-07	5550	CCSc1cccc2c1nc(N[C@@H]1CNCCNC1=O)n1nc(-c3cnn(C)c3)nc21 [Example 938]	–
1.19e-08	22.5	CCSc1cccc2c1nc(N[C@@H]1CNCCNC1=O)n1nc(-c3ccc(OC)cc3)nc21 [Example 939, (6R)-6-{[7-(ethylsulfanyl)-2-(4-methoxyphenyl)[1,2,4]triazolo[1,5-c]quinazolin-5-yl]amino}-1,4-diazepan-5-one]	–
1.79e-08	57	CCS(=O)(=O)c1cccc2c1nc(N[C@@H]1CNCCNC1=O)n1nc(-c3ccc(OC)cc3)nc21 [Example 940, (6R)-6-{[7-(ethanesulfonyl)-2-(4-methoxyphenyl)[1,2,4]triazolo[1,5-c]quinazolin-5-yl]amino}-1,4-diazepan-5-one]	–
3.61e-08	67.5	COc1ccc(-c2nc3c4cccc(S(=O)(=O)C(C)C)c4nc(N[C@@H]4CNCCNC4=O)n3n2)cc1 [Example 941, (6R)-6-{[2-(4-methoxyphenyl)-7-(propan-2-sulfonyl)[1,2,4]triazolo[1,5-c]quinazolin-5-yl]amino}-1,4-diazepan-5-one]	–
7.67e-07	4750	CCS(=O)(=O)c1cccc2c1nc(N[C@@H]1CNCCNC1=O)n1nc(-c3cnn(C)c3)nc21 [Example 942, (6R)-6-{[7-(ethanesulfonyl)-2-(1-methyl-1H-pyrazol-4-yl)[1,2,4]triazolo[1,5-c]quinazolin-5-yl]amino}-1,4-diazepan-5-one]	–
9.47e-07	2790	CC(C)S(=O)(=O)c1cccc2c1nc(N[C@@H]1CNCCNC1=O)n1nc(-c3cnn(C)c3)nc21 [Example 943, (6R)-6-{[2-(1-methyl-1H-pyrazol-4-yl)-7-(propane-2-sulfonyl)[1,2,4]triazolo[1,5-c]quinazolin-5-yl]amino}-1,4-diazepan-5-one]	–
1.67e-06	4620	CC(C)n1cc(-c2nc3c4cccc(S(C)(=O)=O)c4nc(N[C@@H]4CNCCNC4=O)n3n2)cn1 [Example 944, (6R)-6-({7-(methanesulfonyl)-2-[1-(propan-2-yl)-1H-pyrazol-4-yl][1,2,4]triazolo[1,5-c]quinazolin-5-yl}amino)-1,4-diazepan-5-one]	–
4.79e-07	2080	CCn1cc(-c2nc3c4cccc(S(C)(=O)=O)c4nc(N[C@@H]4CNCCNC4=O)n3n2)c(C)n1 [Example 945, (6R)-6-{[2-(1-ethyl-3-methyl-1H-pyrazol-4-yl)-7-(methanesulfonyl)[1,2,4]triazolo[1,5-c]quinazolin-5-yl]amino}-1,4-diazepan-5-one]	–
8.75e-09	2.16	Cn1nccc1-c1nc2c3cccc(C(F)(F)F)c3nc(N[C@@H]3CNCCNC3=O)n2n1 [Example 946, (6R)-6-{[2-(1-methyl-1H-pyrazol-5-yl)-7-(trifluoromethyl)[1,2,4]triazolo[1,5-c]quinazolin-5-yl]amino}-1,4-diazepan-5-one]	–
5.91e-10	0.324	O=C1NCCNC[C@H]1Nc1nc2c(C(F)(F)F)cccc2c2nc(-c3ccc(Cl)cc3)nn12 [Example 947, (6R)-6-{[2-(4-chlorophenyl)-7-(trifluoromethyl)[1,2,4]triazolo[1,5-c]quinazolin-5-yl]amino}-1,4-diazepan-5-one]	–
2.08e-08	49.6	Cc1nn(C)cc1-c1nc2c3cccc(C(F)(F)F)c3nc(N[C@H]3CNCCNC3=O)n2n1 [Example 948]	–
4.4e-09	14.7	CCn1cc(-c2nc3c4cccc(C(F)(F)F)c4nc(N[C@H]4CNCCNC4=O)n3n2)c(C)n1 [Example 949, (6S)-6-{[2-(1-ethyl-3-methyl-1H-pyrazol-4-yl)-7-(trifluoromethyl)[1,2,4]triazolo[1,5-c]quinazolin-5-yl]amino}-1,4-diazepan-5-one]	–
3.22e-09	5.44	Cc1nn(C)cc1-c1nc2c3cccc(Cl)c3nc(N[C@@H]3CNCCNC3=O)n2n1 [Example 951, (6R)-6-{[7-chloro-2-(1,3-dimethyl-1H-pyrazol-4-yl)[1,2,4]triazolo[1,5-c]quinazolin-5-yl]amino}-1,4-diazepan-5-one]	–

SMILES	IC50 (AHR [1]) [M]	IC50 (AHR [2]; [3]) [nM]	IC50 (AHR [2]; [4]) [nM]
N#Cc1cccc2c1nc(N[C@@H]1CNCCNC1=O)n1nc(-c3cnn(C(F)F)c3)nc21 [Example 934, 2-[1-(difluoromethyl)-1H-pyrazol-4-yl]-5-{[(6R)-5-oxo-1,4-diazepan-6-yl]amino}[1,2,4]triazolo[1,5-c]quinazoline-7-carbonitrile]	2.39e-07	–	116
O=C1NCCNC[C@H]1Nc1nc2c(Br)cccc2c2nc(-c3cnn(C4CC4)c3)nn12 [Example 952, (6R)-6-{[7-bromo-2-(1-cyclopropyl-1H-pyrazol-4-yl)[1,2,4]triazolo[1,5-c]quinazolin-5-yl]amino}-1,4-diazepan-5-one]	3.97e-09	–	6.74
